We go through 69 molecules from patent US9809602B2, “Compounds for treating viral infections” (INSTITUT PASTEUR KOREA, priority 2014, dated 2017).

What is called EC50 is the concentration giving half of the maximal effect. The low end stands for greater potency, the high end for weaker potency.

In one test the test system is genotype 1/2 chimeric cell culture derived HCV (HCVcc). In words: Genotype 1/2 chimeric HCVcc assay (nano-luciferase, HCV replication). Format: cell-based. The settings on record: Hepatitis C virus. The gist of the method:
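Huh-7.5 cells (2400/well) pretreated 2 h with serially diluted compound, then infected with nano-luciferase genotype 1a/2a (JFH-1) chimeric HCVcc. At 72 h post infection, nano-luciferase reported replication and cellular ATP reported cytotoxicity; EC50 and CC50 by non-linear regression.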
The molecule `O=C(NCCCN1CCC(N2CCCCC2)CC1)c1ccc(-c2ccc(C(F)(F)F)cc2)cc1F` [Compound 1153] returned a 50% effective concentration (EC50) of 0.1 to 1 µM.

`O=C(NCCCN1CCC(Cc2ccccc2)CC1)c1ccc(Oc2ccccc2)cc1` [Compound 1042] came in with an EC50 of 1 to 10 µM. `O=S(=O)(NCCCN1CCC(N2CCCCC2)CC1)c1ccc(-c2ccc(F)cc2)cc1` [Compound 1096] displayed a half-maximal effective concentration (EC50) of 0.1 to 1 µM.

In the case of `O=C(NCCCN1CCC(N2CCCCC2)CC1)c1ccc(-c2ccc(C(F)(F)F)cc2)c(C(F)(F)F)c1` [Compound 1105], the EC50 lay within 0.1 to 1 µM.

The molecule `O=C(NCCCN1CCC(N2CCCCC2)CC1)c1ccc(-c2cccc(CN3CCOCC3)c2)cc1` [Compound 1143] showed an EC50 of 1 to 10 µM.

Consider `O=C(NCCCN1CCN(c2ccccc2)CC1)c1ccc(Oc2ccccc2)cc1` [Compound 1040], for which the EC50 lay within 1 to 10 µM. `O=C(CCCN1CCC(N2CCCCC2)CC1)Nc1ccc(-c2ccc(C(F)(F)F)cc2)c(C(F)(F)F)c1` [Compound 1158] showed an EC50 of 0.1 to 1 µM. Same read-out and setting: the result for `O=C(NCCCN1CCC(c2ccncc2)CC1)c1ccc(Oc2ccccc2)cc1` [Compound 1055] reads greater than 10 µM. Still for that read-out and setting: the result for `O=C(NCCCN1CCC(N2CCCCC2)CC1)C1=Cc2sc3c(c2CS1)CCCC3` [Compound 1001] reads 0.1 to 1 µM; that for `O=C(c1ccc(Oc2ccccc2)cc1)N1CCC(CN2CCC(N3CCCCC3)CC2)C1` (stereo not drawn) [Compound 1089], 1 to 10 µM; that for `O=C(NCCCN1CCC(N2CCCCC2)CC1)c1ccc(Oc2ccccc2)cc1` [Compound 1013], 0.1 to 1 µM. In turn, `Cc1cccc(-c2ccc(C(=O)NCCCN3CCC(N4CCCCC4)CC3)cc2)c1` [Compound 1014] came in with an EC50 of 1 to 10 µM. For the molecule `O=C(NCCCN1CCC(N2CCCCC2)CC1)c1ccc(-c2cccc(C(F)(F)F)c2)cc1` [Compound 1027], the EC50 lay in the range of 0.1 to 1 µM.

In the case of `O=C(NCCCN1CCC(N2CCCCC2)CC1)c1ccc2c(c1)NC(=O)c1ccccc1S2` [Compound 1066], the EC50 was in the range of 1 to 10 µM. `O=C(NCCCN1CCC(N2CCCCC2)CC1)c1ccc(-c2ccc(N3CCOCC3)cc2)cc1` [Compound 1123] registered a half-maximal effective concentration (EC50) of 0.1 to 1 µM. On the same count and under the same terms, the result for `O=C(NCCCN1CCC(c2ccccc2)CC1)c1ccc(Oc2ccccc2)cc1` [Compound 1041] reads 1 to 10 µM; that for `O=C(NCCCN1CCC(N2CCCCC2)CC1)c1cc2ccccc2[nH]1` [Compound 1010], 1 to 10 µM; that for `N#Cc1ccc(Oc2ccc(C(=O)NCCCN3CCC(N4CCCCC4)CC3)cc2)cc1` [Compound 1035], greater than 10 µM.

`CC(C)(C)OC(=O)N1CCC(C2CCN(CCCNC(=O)c3ccc(Oc4ccccc4)cc3)CC2)CC1` [Compound 1073] showed an EC50 of 0.1 to 1 µM. The same measure, in the same setting: the result for `O=C(NCCCN1CCC(N2CCCCC2)CC1)c1ccc(-c2ccc3cc[nH]c3c2)cc1` [Compound 1121] reads 0.1 to 1 µM; that for `O=C(CCCN1CCC(N2CCCCC2)CC1)Nc1ccc(Oc2ccc(C(F)(F)F)cc2)cc1` [Compound 1078], 0.1 to 1 µM.

The test is the same for the next values; noted with them: Hepatitis C virus, Huh7.5, 72 h.
In the case of `CCOC(=O)c1c(NC(=O)NCc2csc3c2CCNC3)sc2c1CCCC2` [Compound 38], the EC50 is less than 0.1 µM. `C=CCN1CCc2c(sc(-n3cccc3)c2CNC(=O)Nc2sc3c(c2C(=O)OC(C)(C)C)CCCC3)C1` [Compound 324] came in with a half-maximal effective concentration (EC50) of less than 0.1 µM. Consider `O=C(NCc1c(-n2cccc2)sc2c1CCNC2)Nc1sc2c(c1C(=O)N1CCOCC1)CCCC2` [Compound 76], for which the EC50 lay within 0.1 to 1 µM. The same measure, in the same setting: the result for `CCN1CCc2c(sc(-n3cccc3)c2CNC(=O)Nc2sc3c(c2C(=O)NCCCCN)CCCC3)C1` [Compound 91] reads 0.1 to 1 µM; that for `COC(=O)c1c(NC(=O)NCc2c(-n3cccc3)sc3c2CCNC3)sc2c1CCCC2` [Compound 142], 0.1 to 1 µM.

In the case of `CCOC(=O)c1c(NC(=O)NC(=O)c2c(-n3c(C)ccc3C)sc3c2CCN(CC)C3)sc2c1CCCC2` [Compound 49], the EC50 lay in the range of 1 to 10 µM.

On to `CCc1sc(NC(=O)NCc2c(C(F)(F)F)sc3c2CCNC3)c(C(=O)OC(C)(C)C)c1C` [Compound 270], for which the EC50 was less than 0.1 µM. The same measure, in the same setting: the result for `CC1CCCc2sc(NC(=O)NCc3c(Br)sc4c3CCNC4)c(C(=O)OC(C)(C)C)c21` (stereo not drawn) [Compound 290] reads less than 0.1 µM; that for `CCN1CCc2c(sc(Br)c2CNC(=O)Nc2sc3c(c2C(=O)OC(C)(C)C)CCCCC3)C1` [Compound 280], less than 0.1 µM.

As to `CCN1CCc2c(sc(-n3cccc3)c2CNC(=O)Nc2sc3c(c2C(=O)OC2CCCC2)CCCC3)C1` [Compound 222], the EC50 was less than 0.1 µM. Still for that read-out and setting: the result for `CCN1CCc2c(sc(-n3cccc3)c2CNC(=O)Nc2cccs2)C1` [Compound 15] reads greater than 10 µM; that for `Cc1sc(NC(=O)NCc2c(-n3cccc3)sc3c2CCNC3)c(C(=O)OC(C)C)c1C` [Compound 215], less than 0.1 µM. The same measure, in the same setting: the result for `CC(C)OC(=O)c1c(NC(=O)NCc2c(C(F)(F)F)sc3c2CC[N+](C)(C)C3)sc2c1CCCC2` [Compound 170] reads less than 0.1 µM; that for `COc1sc(NC(=O)NCc2c(C(F)(F)F)sc3c2CCNC3)c(C(=O)OC(C)(C)C)c1C` [Compound 371], less than 0.1 µM.

`CCc1sc(NC(=O)NCc2c(C(F)(F)F)sc3c2CCN(CCN(C)C)C3)c(C(=O)OC(C)(C)C)c1C` [Compound 356] gave an EC50 of less than 0.1 µM. On the same count and under the same terms, the result for `CCOC(=O)c1c(NC(=O)NCc2c(C(F)(F)F)sc3c2CCNC3)sc2c1CCC(C)C2` (stereo not drawn) [Compound 166] reads less than 0.1 µM; that for `Cc1cncc(-c2sc3c(c2CNC(=O)Nc2sc4c(c2C(=O)OC(C)(C)C)CCCC4)CCNC3)c1` [Compound 322], 0.1 to 1 µM; that for `CCOC(=O)c1c(NC(=O)NCc2c(-n3cccc3)sc(CN3CCOCC3)c2C)sc2c1CCCC2` [Compound 53], less than 0.1 µM. On to `CC(C)(C)OC(=O)c1c(NC(=O)NCc2c(-c3ccc(F)cc3Cl)sc3c2CCNC3)sc2c1CCCC2` [Compound 286], for which the EC50 lay within 0.1 to 1 µM. The same measure, in the same setting: the result for `CC(C)(C)OC(=O)c1c(NC(=O)NCc2c(-n3cccc3)sc3c2CCNC3)sc2c1CCCC2` [Compound 106] reads less than 0.1 µM. Consider `CCOC(=O)c1c(NC(=O)NCc2c(-n3cccc3)sc3c2CCCN3)sc2c1CCCC2` [Compound 101], for which the EC50 was 0.1 to 1 µM. The molecule `Cc1c(CNC(=O)Nc2sc3c(c2C(=O)OC(C)(C)C)CCCC3)csc1CN(C)C` [Compound 189] yielded an EC50 of less than 0.1 µM. Same read-out and setting: the result for `CCOC(=O)c1c(NC(=O)NCc2c(-n3cccc3)sc3c2CCN(CC)C3)sc(C(=O)N(C)C)c1C` [Compound 58] reads 1 to 10 µM; that for `Cc1sc(NC(=O)NCc2c(Br)sc3c2CCNC3)c(C(=O)OC(C)C)c1C` [Compound 216], less than 0.1 µM. Molecule `CC(C)(C)OC(=O)c1c(NC(=O)NCc2c(Br)sc3c2CCNC3)sc2c1CCCCC2` [Compound 225] came in with an EC50 of less than 0.1 µM. Same read-out and setting: the result for `Cc1nnc(-c2c(NC(=O)NCc3c(-n4cccc4)sc4c3CCN(C)C4)sc3c2CCCC3)o1` [Compound 65] reads less than 0.1 µM. Still for that read-out and setting: the result for `CCOC(=O)c1c(NC(=O)NCc2c(-n3cccc3)sc3c2CCN(C)C3)sc2c1C(C)CCC2` (stereo not drawn) [Compound 152] reads less than 0.1 µM. Molecule `CCN1CCc2c(sc(-n3cccc3)c2CNC(=O)Nc2sc3c(c2C(=O)OC(C)(C)C)CCOC3)C1` [Compound 237] showed an EC50 of less than 0.1 µM. Still for that read-out and setting: the result for `CC(C)(C)OC(=O)c1c(NC(=O)NCc2c(-c3ccccc3C(F)(F)F)sc3c2CCNC3)sc2c1CCCC2` [Compound 161] reads 0.1 to 1 µM; that for `CCN1CCc2c(sc(-n3cccc3)c2CNC(=O)Nc2sc3c(c2C(N)=O)CCCC3)C1` [Compound 37], 0.1 to 1 µM; that for `CC(C)(C)OC(=O)c1c(NC(=O)NCc2c(-c3ccc(C(=O)O)cc3)sc3c2CCNC3)sc2c1CCCC2` [Compound 257], 1 to 10 µM. `CCN(C)Cc1sc(-n2cccc2)c(CNC(=O)Nc2sc3c(c2C(=O)OC(C)(C)C)CCCC3)c1C` [Compound 136] returned an EC50 of less than 0.1 µM. Take `O=C(NCc1c(C(F)(F)F)sc2c1CCNC2)Nc1sc2c(c1C(=O)OC1CCOCC1)CCCC2` [Compound 330]: the EC50 was less than 0.1 µM. The same measure, in the same setting: the result for `Cc1sc(NC(=O)NCc2c(C(F)(F)F)sc3c2CCNC3)c(C(=O)OC2CCOC2)c1C` (stereo not drawn) [Compound 350] reads less than 0.1 µM.

For `CC(C)OC(=O)c1c(NC(=O)NCc2c(Br)sc3c2CC[N+](C)(C)C3)sc2c1CCCC2` [Compound 173], the EC50 was less than 0.1 µM. The molecule `CCOC(=O)c1c(NC(=O)NCc2cccc(CN(C)C)c2)sc2c1CCCC2` [Compound 102] yielded an EC50 of 0.1 to 1 µM.

`Cc1sc(NC(=O)NCc2c(-c3cccc(Cl)c3)sc3c2CCN(CCN(C)C)C3)c(C(=O)OC(C)(C)C)c1C` [Compound 365] had an EC50 of 0.1 to 1 µM. On the same count and under the same terms, the result for `CC1CCc2c(sc(NC(=O)NCc3c(-n4cccc4)sc4c3CCN(C)C4)c2C(=O)OC(C)(C)C)C1` (stereo not drawn) [Compound 210] reads less than 0.1 µM; that for `Cc1sc(NC(=O)NCc2c(-n3cccc3)sc3c2CCN(C)C3)c(C(=O)OC(C)(C)C)c1C` [Compound 69], less than 0.1 µM; that for `CC(C)OC(=O)c1c(NC(=O)NCc2c(Br)sc3c2CCNC3)sc2c1CCCC2` [Compound 140], less than 0.1 µM.

Turning to `CCOC(=O)c1c(NC(=O)NCc2ccc(CN(C)C)cc2)sc2c1CCCC2` [Compound 29], the EC50 fell in the range of 0.1 to 1 µM.

`CCOC(=O)c1c(NC(=O)c2cc3c(s2)CCCC3)sc2c1CCN(CC)C2` [Compound 17] showed an EC50 of 1 to 10 µM. Same read-out and setting: the result for `CCOC(=O)c1c(NC(=O)NCc2c(C(F)(F)F)sc3c2CCNC3)sc2ccccc12` [Compound 348] reads less than 0.1 µM; that for `CC(C)(C)OC(=O)c1c(NC(=O)NCc2c(-c3cccc(Cl)c3)sc3c2CCNC3)sc2c1CCCC2` [Compound 180], less than 0.1 µM. In the case of `Cc1nnc(-c2c(NC(=O)NCc3c(C(F)(F)F)sc4c3CCNC4)sc(C)c2C)o1` [Compound 149], the EC50 is less than 0.1 µM. The molecule `CCOC(=O)c1c(NC(=O)C(=O)NCc2c(-n3cccc3)sc3c2CCNC3)sc2c1CCCC2` [Compound 86] came in with an EC50 of 1 to 10 µM. On the same count and under the same terms, the result for `CCc1sc2c(c1CNC(=O)Nc1sc3c(c1C(=O)OC1CCCC1)CCCC3)CCNC2` [Compound 313] reads less than 0.1 µM.

In turn, `CC(C)OC(=O)c1c(NC(=O)NCc2c(-n3cccc3)sc3c2CCN(C)C3)sc2c1CCCC2` [Compound 156] registered an EC50 of less than 0.1 µM.
